US7485641B2, “Substituted 3-amino-pyrrolidino-4-lactams” (Pfizer, Inc., priority 2006, dated 2009)
Counter-ions that a name gives are not always drawn.

target: T1, DPP-IV (Homo sapiens, UniProt P27487); experiment: In vitro assay for dipeptidyl peptidase inhibition; type: biochemical; details: Examples 156-162; n-value in brackets; IC50's or percent inhibition at 300 nM; read-out: DPP-IV inhibition
T1 construct: purchased Enzyme Systems Products SPE-01
T1 sequence (P27487 whole entry, species assumed): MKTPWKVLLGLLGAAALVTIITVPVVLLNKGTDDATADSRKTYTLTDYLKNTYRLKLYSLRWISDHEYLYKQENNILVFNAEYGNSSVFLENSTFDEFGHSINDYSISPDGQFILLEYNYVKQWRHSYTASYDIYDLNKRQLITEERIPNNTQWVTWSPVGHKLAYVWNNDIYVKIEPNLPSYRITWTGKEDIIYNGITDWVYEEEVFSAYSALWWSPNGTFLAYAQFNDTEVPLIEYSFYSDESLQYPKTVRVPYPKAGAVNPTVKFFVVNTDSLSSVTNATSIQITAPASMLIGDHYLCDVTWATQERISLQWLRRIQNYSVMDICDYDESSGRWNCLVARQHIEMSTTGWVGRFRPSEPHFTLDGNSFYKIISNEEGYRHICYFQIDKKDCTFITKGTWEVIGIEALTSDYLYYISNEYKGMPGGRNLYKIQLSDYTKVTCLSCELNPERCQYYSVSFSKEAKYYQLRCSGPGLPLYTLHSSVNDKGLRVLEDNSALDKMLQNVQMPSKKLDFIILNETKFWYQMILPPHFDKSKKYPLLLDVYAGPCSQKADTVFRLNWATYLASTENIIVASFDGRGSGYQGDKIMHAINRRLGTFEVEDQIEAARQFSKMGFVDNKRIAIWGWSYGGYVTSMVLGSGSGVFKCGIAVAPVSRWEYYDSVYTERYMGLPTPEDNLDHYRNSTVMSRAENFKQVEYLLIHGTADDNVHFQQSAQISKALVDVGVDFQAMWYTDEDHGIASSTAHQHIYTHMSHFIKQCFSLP

Row | IC50 [nM] | Compound
1 | 187 | N[C@H]1CN(C(=O)c2cc3ccccc3o2)C[C@@H]1N1CCCCC1=O [Example 156, 1-[(3S,4S)-4-Amino-1-(benzofuran-2-carbonyl)-pyrrolidin-3-yl]-piperidin-2-one hydrochloride]

same assay, conditions: at 300 nM; n-value given in brackets

Row | Compound | DPP-IV Percent Inhibition at 300 nM
2 | CC(Oc1cc(N2C[C@H](N)[C@@H](N3CCCCC3=O)C2)ncn1)C(F)(F)F.O=C(O)C(F)(F)F (stereo partly drawn) [Example 93, 1-((3S,4S)-4-Amino-1-(6-(1,1,1-trifluoropropan-2-yloxy)pyrimidin-4-yl)pyrrolidin-3-yl)piperidin-2-onetrifluoroacetate] | 13.8%(4)

same assay, conditions: at 300 nM; n-value given in brackets; read-out: DPP-IV Percent Inhibition at 300 nM

Row | inhibition at 0.3 µM [%] | Compound
3 | 17.9 | Cn1nc(C(F)(F)F)c2c1CCN(c1ncnc(N3C[C@H](N)[C@@H](N4CCCCC4=O)C3)n1)C2 [Example 67, 1-((3S,4S)-4-amino-1-(4-(1-methyl-3-(trifluoromethyl)-6,7-dihydro-1H-pyrazolo[4,3-c]pyridin-5(4H)-yl)-1,3,5-triazin-2-yl)pyrrolidin-3-yl)piperidin-2-one]
4 | 47 | COc1ccc2ncnc(N3C[C@H](N)[C@@H](N4CCCCC4=O)C3)c2c1 [Example 107, 1-((3S,4S)-4-amino-1-(6-methoxyquinazolin-4-yl)pyrrolidin-3-yl)piperidin-2-one]

same assay, conditions: n-value given in brackets; read-out: DPP-IV IC50

Row | Compound | IC50 [nM]
5 | COc1ccc2c(N3C[C@H](N)[C@@H](N4CC(F)(F)CCC4=O)C3)ncnc2c1 [Example 98, 1-((3S,4S)-4-amino-1-(7-methoxyquinazolin-4-yl)pyrrolidin-3-yl)-5,5-difluoropiperidin-2-one] | 34.2
6 | N[C@H]1CN(c2ncnc(N3CC[C@@H](NC(=O)C(F)(F)F)C3)n2)C[C@@H]1N1CCCCC1=O [Example 42, N-((R)-1-(4-((3S,4S)-3-Amino-4-(2-oxopiperidin-1-yl)pyrrolidin-1-yl)-1,3,5-triazin-2-yl)pyrrolidin-3-yl)-2,2,2-trifluoroacetamidetrifluoroacetate] | 80
7 | N[C@H]1CN(c2ncnc3cc(Sc4cccc(F)c4)ccc23)C[C@@H]1N1CCCCC1=O [Example 130, 1-((3S,4S)-4-amino-1-(7-(3-fluorophenylthio)quinazolin-4-yl)pyrrolidin-3-yl)piperidin-2-oneformate] | 60.5
8 | N[C@H]1CN(c2ncnc3cc(Oc4ccc(F)cc4)ccc23)C[C@@H]1N1CCCCC1=O [Example 128, 1-((3S,4S)-4-amino-1-(7-(4-fluorophenoxy)quinazolin-4-yl)pyrrolidin-3-yl)piperidin-2-one] | 222
9 | N[C@H]1CN(c2ncnc(N3C[C@@H](F)[C@@H](F)C3)n2)C[C@@H]1N1CCCCC1=O [Example 28, 1-((3S,4S)-4-Amino-1-(4-((3R,4S)-3,4-difluoropyrrolidin-1-yl)-1,3,5-triazin-2-yl)pyrrolidin-3-yl)piperidin-2-onetrifluoroacetate] | 67.8
10 | CC1(O)CCN(c2ncnc(N3C[C@H](N)[C@@H](N4CCCCC4=O)C3)n2)CC1 [Example 35, 1-{(3S,4S)-4-Amino-1-[4-(4-hydroxy-4-methyl-piperidin-1-yl)-[1,3,5]triazin-2-yl]-pyrrolidin-3-yl}-piperidin-2-onetrifluoroacetate] | 558
11 | N[C@H]1CN(c2ncnc3cc(OC4CCC4)ccc23)C[C@@H]1N1CCCCC1=O [Example 125, 1-((3S,4S)-4-amino-1-(7-cyclobutoxyquinazolin-4-yl)pyrrolidin-3-yl)piperidin-2-one] | 101
12 | N[C@H]1CN(C(=O)c2cc3cc(Cl)ccc3o2)C[C@@H]1N1CCCCC1=O [Example 154, 1-[(3S,4S)-4-Amino-1-[(5-chloro-1-benzofuran-2-yl)carbonyl]-pyrrolidin-3-yl]-piperidin-2-one hydrochloride] | 92.3
13 | Cc1nc(N2C[C@H](N)[C@@H](N3CCCCC3=O)C2)cc(N2CCCC(F)(F)C2)n1 [Example 34, 1-((3S,4S)-4-amino-1-(6-(3,3-difluoropiperidin-1-yl)-2-methylpyrimidin-4-yl)pyrrolidin-3-yl)piperidin-2-onetrifluoroacetate] | 277
14 | CS(=O)(=O)Oc1ccc2c(N3C[C@H](N)[C@@H](N4CCCCC4=O)C3)ncnc2c1 [Example 135, 4-((3S,4S)-3-amino-4-(2-oxopiperidin-1-yl)pyrrolidin-1-yl)quinazolin-7-yl methanesulfonate] | 128
15 | CSc1ccc(Sc2ccc3c(N4C[C@H](N)[C@@H](N5CCCCC5=O)C4)ncnc3c2)cc1 [Example 132] | 720
16 | CC(C)c1nc(N2C[C@H](N)[C@@H](N3CCCCC3=O)C2)cc(N2CCC(F)(F)C2)n1 [Example 16, 1-((3S,4S)-4-amino-1-(6-(3,3-difluoropyrrolidin-1-yl)-2-isopropylpyrimidin-4-yl)pyrrolidin-3-yl)piperidin-2-oneformate] | 136

Other lines, results leading:

Row | IC50 [nM] | Compound
17 | 85.3 | N[C@H]1CN(c2ncnc(N3CCc4ccccc4C3)n2)C[C@@H]1N1CCCCC1=O [Example 56, 1-{(3S,4S)-4-Amino-1-[4-(3,4-dihydro-1H-isoquinolin-2-yl)-[1,3,5]triazin-2-yl]-pyrrolidin-3-yl}-piperidin-2-onetrifluoroacetate]
18 | 29.7 | CC(C)Oc1ccc2c(N3C[C@H](N)[C@@H](N4CCCCC4=O)C3)ncnc2c1 [Example 115, 1-((3S,4S)-4-amino-1-(7-isopropoxyquinazolin-4-yl)pyrrolidin-3-yl)piperidin-2-one]
19 | 33.2 | N[C@H]1CN(c2ncnc3cc(OC(F)F)ccc23)C[C@@H]1N1CCCCC1=O [Example 124, 1-((3S,4S)-4-amino-1-(7-(difluoromethoxy)quinazolin-4-yl)pyrrolidin-3-yl)piperidin-2-one]
20 | 38.6 | COc1ccc(-c2cc(N3C[C@H](N)[C@@H](N4CCCCC4=O)C3)ncn2)cn1 [Example 87, 1-{(3S,4S)-4-Amino-1-[6-(6-methoxy-pyridin-3-yl)-pyrimidin-4-yl]pyrrolidin-3-yl}-piperidin-2-one dihydrochloride]
21 | 6.08 | N[C@H]1CN(c2cc(N3CCc4nocc4C3)ncn2)C[C@@H]1N1CC(F)(F)CCC1=O [Example 4, 1-((3S,4S)-4-amino-1-(6-(6,7-dihydroisoxazolo[4,3-c]pyridin-5(4H)-yl)pyrimidin-4-yl)pyrrolidin-3-yl)-5,5-difluoropiperidin-2-one]
22 | 12 | N[C@H]1CN(c2cc(N3CC[C@H](F)C3)ncn2)C[C@@H]1N1CC(F)(F)CCC1=O [Example 23, 1-((3S,4S)-4-amino-1-(6-((S)-3-fluoropyrrolidin-1-yl)pyrimidin-4-yl)pyrrolidin-3-yl)-5,5-difluoropiperidin-2-one]
23 | 61.7 | N[C@H]1CN(c2ncnc(N3CCc4nocc4C3)c2F)C[C@@H]1N1CCCCC1=O [Example 79, 1-((3S,4S)-4-amino-1-(6-(6,7-dihydroisoxazolo[4,3-c]pyridin-5(4H)-yl)-5-fluoropyrimidin-4-yl)pyrrolidin-3-yl)piperidin-2-one]
24 | 787 | N[C@H]1CN(c2cc(N3CCc4ccccc4CC3)ncn2)C[C@@H]1N1CCCC1=O [Example 61, 1-((3S,4S)-4-Amino-1-(6-(1,2,4,5-tetrahydrobenzo[d]azepin-3-yl)pyrimidin-4-yl)pyrrolidin-3-yl)pyrrolidin-2-onehydrochloride]
25 | 1400 | N[C@H]1CN(c2cc(NC3CC3)ncn2)C[C@@H]1N1CCCC1=O [Example 74, 1-((3S,4S)-4-Amino-1-(6-cyclopropylamino-pyrimidin-4-yl)pyrrolidin-3-yl)pyrrolidin-2-onetrihydrochloride]
26 | 176 | N[C@H]1CN(c2cc(N3Cc4ccccc4C3)ncn2)C[C@@H]1N1CCCC1=O [Example 52, 1-((3S,4S)-4-Amino-1-(6-(isoindolin-2-yl)pyrimidin-4-yl)pyrrolidin-3-yl)pyrrolidin-2-onehydrochloride]
27 | > 30000 | COc1ccc(Cl)c2c(N3C[C@H](N)[C@@H](N4CCCCC4=O)C3)ncnc12 [Example 152, 1-((3S,4S)-4-amino-1-(5-chloro-8-methoxyquinazolin-4-yl)pyrrolidin-3-yl)piperidin-2-one trifluoroacetate]
28 | 55 | CCSc1ccc2c(N3C[C@H](N)[C@@H](N4CCCCC4=O)C3)ncnc2c1 [Example 140, 1-((3S,4S)-4-amino-1-(7-(ethylthio)quinazolin-4-yl)pyrrolidin-3-yl)piperidin-2-one]
29 | 23.7 | N[C@H]1CN(c2ncnc(N3CCc4nocc4C3)n2)C[C@@H]1N1CCCCC1=O [Example 76, 1-{(3S,4S)-4-Amino-1-[4-(6,7-dihydro-4H-isoxazolo[4,3-c]pyridine-5-yl)-[1,3,5]triazin-2-yl]-pyrrolidin-3-yl}-piperidin-2-one trifluoroacetate]
30 | 395 | N[C@H]1CN(c2cc(N3CCc4[nH]ncc4C3)ncn2)C[C@@H]1N1CCCC1=O [Example 66, 1-((3S,4S)-4-Amino-1-(6-(6,7-dihydro-1H-pyrazolo[4,3-c]pyridin-5(4H)-yl)pyrimidin-4-yl)pyrrolidin-3-yl)pyrrolidin-2-onedihydrochloride]
31 | 1260 | COc1cc2c(cc1OC)CN(c1cc(N3C[C@H](N)[C@@H](N4CCCC4=O)C3)ncn1)CC2 [Example 60, 1-((3S,4S)-4-Amino-1-(6-(3,4-dihydro-6,7-dimethoxyisoquinolin-2(1H)-yl)pyrimidin-4-yl)pyrrolidin-3-yl)pyrrolidin-2-onehydrochloride]
32 | 47.4 | N[C@H]1CN(c2cc(-c3ccccc3)ncn2)C[C@@H]1N1CCCCC1=O [Example 7, 1-((3S,4S)-4-Amino-1-(6-phenylpyrimidin-4-yl)pyrrolidin-3-yl)piperidin-2-one hydrochloride]
33 | 1060 | N[C@H]1CN(c2cc(N3CCS(=O)(=O)CC3)ncn2)C[C@@H]1N1CCCC1=O [Example 69, 1-((3S,4S)-4-Amino-1-[6-(1,1-dioxo-6-thiomorpholin-4-yl)-pyrimidin-4-yl]-pyrrolidin-3-yl)pyrrolidin-2-onedihydrochloride]
34 | 317 | N[C@H]1CN(c2cc(N3CCc4ccccc4C3)ncn2)C[C@@H]1N1CCCC1=O [Example 57, 1-((3S,4S)-4-Amino-1-(6-(3,4-dihydroisoquinolin-2(1H)-yl)pyrimidin-4-yl)pyrrolidin-3-yl)pyrrolidin-2-onehydrochloride]
